The values that follow come from patent publication US20190062340A1, “CORTISTATIN ANALOGS” (PRESIDENT AND FELLOWS OF HARVARD COLLEGE, priority 2016, published 2019).

pIC50: −log10 of the molar value.

Data set [1] deals with hERG (Homo sapiens, UniProt Q12809). The data set is described as follows: hERG activity. The conditions noted are these: low hERG activity is defined as IC50>1 μM. On the technique in general: hERG is a cardiac potassium channel; its block is linked to QT prolongation.
A short description of data set [2]: Toxicity (weight loss) over 7 day dosing. Conditions: low toxicity, no significant weight loss. The class given is in vivo.
Data set [3] relates to off-target enzymes and receptors. Description: Selectivity against off-target enzymes and receptors.
The nature of data set [4]: Tolerability of once-daily dosing in mice (weight loss). Conditions: once-daily at a dose that fully inhibits CDK8 kinase activity in vivo, experiment terminated.
The test system of data set [5] is human umbilical vein endothelial cells (HUVECs). Conditions: HUVEC proliferation; initial study of Aoki et al.; read-out: IC50, anti-proliferative activity against HUVECs; cited from earlier work.

Chain of hERG (Q12809 whole entry): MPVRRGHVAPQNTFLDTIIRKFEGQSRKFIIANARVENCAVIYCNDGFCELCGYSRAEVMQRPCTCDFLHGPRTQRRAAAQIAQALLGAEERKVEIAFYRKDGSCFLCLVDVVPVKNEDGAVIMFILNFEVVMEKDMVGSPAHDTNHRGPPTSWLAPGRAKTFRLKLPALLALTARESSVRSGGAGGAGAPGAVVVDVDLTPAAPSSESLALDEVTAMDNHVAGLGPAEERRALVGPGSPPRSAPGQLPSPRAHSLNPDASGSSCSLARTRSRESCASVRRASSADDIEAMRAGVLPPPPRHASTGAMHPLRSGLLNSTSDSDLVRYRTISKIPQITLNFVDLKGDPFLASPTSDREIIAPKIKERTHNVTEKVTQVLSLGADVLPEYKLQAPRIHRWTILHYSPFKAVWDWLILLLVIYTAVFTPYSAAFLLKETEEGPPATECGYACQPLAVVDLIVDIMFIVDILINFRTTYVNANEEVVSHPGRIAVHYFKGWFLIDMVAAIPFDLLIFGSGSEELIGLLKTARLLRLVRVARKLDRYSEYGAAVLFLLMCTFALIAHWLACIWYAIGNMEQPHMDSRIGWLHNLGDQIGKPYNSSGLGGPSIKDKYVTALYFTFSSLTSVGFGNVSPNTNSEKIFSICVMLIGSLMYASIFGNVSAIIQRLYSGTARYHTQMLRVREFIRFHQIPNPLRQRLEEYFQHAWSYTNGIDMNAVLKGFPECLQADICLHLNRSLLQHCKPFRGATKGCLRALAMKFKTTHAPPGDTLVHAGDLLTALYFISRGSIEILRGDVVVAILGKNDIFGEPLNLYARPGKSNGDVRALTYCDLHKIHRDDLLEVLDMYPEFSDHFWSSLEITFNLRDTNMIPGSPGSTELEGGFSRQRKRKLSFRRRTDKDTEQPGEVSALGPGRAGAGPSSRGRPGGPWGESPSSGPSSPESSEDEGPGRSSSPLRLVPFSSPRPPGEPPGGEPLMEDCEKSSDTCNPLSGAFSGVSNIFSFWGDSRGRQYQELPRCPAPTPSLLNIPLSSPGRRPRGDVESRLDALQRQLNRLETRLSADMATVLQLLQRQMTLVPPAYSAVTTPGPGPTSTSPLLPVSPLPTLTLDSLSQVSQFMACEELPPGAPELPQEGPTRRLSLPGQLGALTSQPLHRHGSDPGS

`C[C@]12CC=C3C=C4CC[C@@H](O)C[C@]45CC[C@]3(O5)[C@@H]1CC[C@@H]2c1ccc2ccncc2c1` [Compound A, (3S,3 aR,9R,10aR,12aS,12bR)-3-(isoquinolin-7-yl)-3a-methyl-1,2,3,3 a,4,7,8,9,10,11,12,12b-dodecahydro-10a,12a-epoxybenzo[4,5]cyclohepta[1,2-e]inden-9-ol]: in data set [1], the pIC50 was under 6.00. Further, the weight loss in data set [2] is on record as under 15%. In data set [3], the “selectivity against off-target enzymes and receptors” value was “high selectivity”.
With Cortistatin A, the “weight loss in the animal” value in data set [4] is reported as “unacceptable weight loss”. Further, the negative-log IC50 (pIC50) in data set [5] was 8.74.

The term pIC50 denotes the IC50 on a negative log10 scale, so that one unit is a factor of ten.
